Data reported in patent EP4650362A1, “NEUROPROTECTIVE PSD-95 POLYPEPTIDE INHIBITOR AND USE THEREOF” (Beijing Tuo Jie Biopharmaceutical Co. Ltd., priority 2023, dated 2024).
“And” between values parts separate entries of the source, which are not always exact repeats. Equal entries are not always repeated. Each block holds one molecule with its values, some of them ahead of it.

Key:
[1] = plasma stability test, rat plasma; type: in vitro ADME; conditions: 2 µM (test control)
Protocol: (§1) This test example assessed the in vitro stability of polypeptide compounds in rat and human plasma, and is divided into two parts: 1) the stability of the individual polypeptide compounds in rat and human plasma; and 2) the stability of the polypeptide compounds in rat and human plasma when the polypeptide compounds are administered simultaneously with alteplase (rt-PA).
(§2) Solution preparation: An appropriate amount of a test polypeptide compound was weighed out and dissolved in an appropriate amount of 1× PBS to form a 1 mM test solution. NA-1 and NoNO42 were used as positive drugs, propantheline bromide was used as a human plasma test control, and lovastatin was used as a rat plasma test control.
(§3) Plasma stability test: 12.5 µL of the 1 mM test solution was added to a 495 µL pre-incubated plasma sample. The prepared plasma sample was added to centrifuge tubes of different incubation times (0 min, 10 min, 20 min, 30 min, 60 min, and 120 min) (50 µL/tube), and the tubes were then incubated in a water bath at 37 °C with shaking at 60 rpm. For each incubation time, two parallel samples were set. Subsequently, 200 µL of stop solution was added to stop the incubation, and the mixtures were vortexed for 5 min. Then the mixtures were centrifuged at 10,000 rpm at 4 °C for 10 min to remove the protein in the sample, and 70 µL of the supernatant was transferred to a new 96-well plate (70 µL of water was added to each well beforehand) and well mixed.
(§4) The remaining compound content at each time point was determined by LC-MS/MS, and the relative remaining compound contents at the other time points were calculated with the content at 0 min as a standard (100%).
(§5) Sample pretreatment: A 30 µL plasma sample was taken and added to 120 µL of a 5% solution of formic acid in methanol containing 1 ng/mL internal standard (verapamil). The mixture was vortexed for 5 min and centrifuged at low temperature at 10,000 rpm for 10 min. 70 µL of the supernatant was taken, and 70 µL of a 0.1% aqueous solution of formic acid was added and well mixed, and the mixture was injected into an LC-MS system for analysis.
(§6) LC-MS analysis: (1) Chromatographic conditions: mobile phase A: 0.1% formic acid in water; mobile phase B: 0.1% formic acid in acetonitrile; flow rate: 0.5 mL/min; injection volume: 10 µL; chromatography column: nanomicro Unisil C18aq (4.6 mm × 150 mm, 5 µm); column temperature: 40 °C. (2) Mass-spectrometric conditions: The mass spectrometry analysis used an electrospray ionization (ESI) source, a positive ion analysis mode, and a multi-reaction monitoring (MRM) scan mode. The experimental results are shown in Table 4-1, Table 4-2, FIG. 2A, FIG. 2B, FIG. 2C, and FIG. 2D. Table 4-1. The plasma stability of the polypeptide compound

[2] = plasma stability test, human plasma; type: in vitro ADME; conditions: 2 µM (test control)
Protocol: as §1, §2, §3, §4, §5, §6

[3] = target: human PSD95-PDZ2 (the tag was removed by TEV enzyme) (human) (UniProt P78352); test: competitive ELISA; NA-1 reference value printed with compound 15; competitor Biotin-NA-1 at 0.3 µM
Chain of human PSD95-PDZ2 (the tag was removed by TEV enzyme) (human) (P78352 155-249 limits assumed): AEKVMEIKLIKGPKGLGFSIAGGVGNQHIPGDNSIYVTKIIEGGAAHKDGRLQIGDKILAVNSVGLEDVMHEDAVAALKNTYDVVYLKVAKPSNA

[4] = target: Biotin-PDZ2 (human); test: binding ELISA; ratio of EC50 on Biotin-PDZ3 to EC50 on Biotin-PDZ2
[5] = target: Biotin-PDZ2 (human); test: binding ELISA; peptide coated at 2 µM, Biotin-PDZ2 titrated
[6] = target: human PSD95-PDZ2 (the tag was removed by TEV enzyme) (human) (UniProt P78352); test: competitive ELISA; NA-1 reference value printed with compound 17; competitor Biotin-NA-1 at 0.3 µM
[7] = target: human PSD95-PDZ2 (the tag was removed by TEV enzyme) (human) (UniProt P78352); test: competitive ELISA; NA-1 reference value printed with compound 22; competitor Biotin-NA-1 at 0.3 µM
[8] = target: human PSD95-PDZ2 (the tag was removed by TEV enzyme) (human) (UniProt P78352); test: competitive ELISA; NA-1 reference value printed with compound 16; competitor Biotin-NA-1 at 0.3 µM
[9] = tested on: PDZ2; conditions: Science, 2002, 298:846-50; cited from earlier work

- Relative remaining compound content (%) ([1]; 0min (standard 100%)): 100.0%
- Relative remaining compound content (%) ([1]; 10min): 8.5% and 9.6%
- Relative remaining compound content (%) ([1]; 20min): 1.8% and 2.1%
- Relative remaining compound content (%) ([1]; 30min): 0.7% and 0.9%
Molecule: CC[C@H](C)C(=O)O[C@H]1C[C@@H](C)C=C2C=C[C@H](C)[C@H](CC[C@@H]3C[C@@H](O)CC(=O)O3)[C@H]21 [Lovastatin]

- Relative remaining compound content (%) ([2]; 0min (standard 100%)): 100.0%
- Relative remaining compound content (%) ([2]; 10min): 80.2% and 84.0%
- Relative remaining compound content (%) ([2]; 20min): 71.5% and 66.8%
- Relative remaining compound content (%) ([2]; 30min): 63.4% and 53.4%
- Relative remaining compound content (%) ([2]; 60min): 42.7% and 26.4%
- Relative remaining compound content (%) ([2]; 120min): 10.9% and 7.2%
Molecule: CC(C)[N+](C)(CCOC(=O)C1c2ccccc2Oc2ccccc21)C(C)C [Propantheline bromide]

Molecule: NA-1 (peptide)
- IC50 [3]: 872 nM
- Specificity for PDZ2 (PDZ3/PDZ2) [4]: > 10000
- EC50 [5]: 83 nM
- IC50 [6]: 872 nM
- IC50 [7]: 517 nM
- IC50 [8]: 872 nM

Molecule: YGRKKRRQRRRKLSSIEADA (source 1..20: note = NA-1(ADA)) [negative control, mutant of NA-1 obtained by mutating the amino acids at positions 0 and -2 into Ala]
- ability to bind to PDZ2 [9]: no ability to bind to PDZ2
